How the values were obtained:
NS1 = settings: cited from earlier work
[1] = system: IFN-β promoter luciferase reporter; format: cell-based, human
2′5′ OAS mRNA = experiment: qRT-PCR of OAS mRNA in infected A549 cells; format: cell-based, human; settings: A/PR/8/34(H1N1)-infected A549 cells, 24 h p.i., normalized with GAPDH and HAU
[2] = system: influenza virus A/PR/8/34(H1N1); experiment: microbe, parasite or virus in culture; settings: unidentified influenza virus, A549, 24 h
RNase L mRNA = experiment: qRT-PCR of RNase L mRNA in infected A549 cells; format: cell-based, human; settings: A/PR/8/34(H1N1)-infected A549 cells, 24 h p.i., normalized with GAPDH and HAU
[3] = system: influenza virus A/PR/8/34(H1N1); settings: A549 cells; for reduction of viral replication: 50 µM, 3 h before infection, MOI 0.1, 24 h p.i., HAU
in vitro = settings: human
Protocol: (§1) Cytotoxic concentration to cause death to 50% of viable cells (CC50) was calculated by neutral red uptake assay (NRU) assay [64]. In brief, 1 × 10^4 A549 cells were seeded in 96-well plates and exposed to different concentrations of cpds 157, 164 (25, 50, 100, 200, and 400 μM) or equivalent volumes of DMSO as a control for 48 h. At the end of the exposure time, cells were washed with phosphate-buffered saline (PBS) before being incubated for 3 h in a medium supplemented with neutral red (50 μg/mL). The medium was washed off rapidly with PBS, and cells were incubated for a further 15′ at R.T. in a mixture of 1% acetic acid and 50% ethanol to extract the dye. Absorbance was then measured at 540 nm using a micro-plate reader (Biorad). Neutral red powder was purchased from Sigma-Aldrich. The percentage of cell death for each compound concentration, compared to the corresponding DMSO amount in untreated controls (y-axis), was plotted against increasing cpd concentrations (x-axis). Data were transformed in log scale [x = log(x)], and a linear regression analysis was used to calculate the CC50 concentration.

A(H1N1)pdm09 NS1 [4] = experiment: IFN-β promoter luciferase screening of the diverse library (glow type); format: cell-based, A(H1N1)pdm09 influenza virus; settings: HEK 293 cells; for increase of IFN-β promoter stimulation: 50 μM, 42 h treatment, glow luciferase, single experiment
PKR mRNA = experiment: qRT-PCR of PKR mRNA in infected A549 cells; format: cell-based, human; settings: A/PR/8/34(H1N1)-infected A549 cells, 24 h p.i., normalized with GAPDH and HAU
IFN-β mRNA = experiment: qRT-PCR of IFN-β mRNA in infected A549 cells; format: cell-based, human; settings: A/PR/8/34(H1N1)-infected A549 cells, 24 h p.i., normalized with GAPDH and HAU
A(H1N1)pdm09 NS1 [5] = experiment: Confirmation in the IFN-β luciferase system (flash type); format: cell-based, A(H1N1)pdm09 influenza virus; settings: HEK 293 cells, 50 μM
A549 cells = settings: human, 48 h
Protocol: as §1

Compound | EC50 (NS1) [µM] | non-specific activity on the reporter, alone or with IFN inducer, without NS1 [1] | fold increase for 2′5′ OAS (2′5′ OAS mRNA) [fold] | IC50 [2] [µM] | fold increase for RNase L (RNase L mRNA) [fold] | therapeutic index (CC50/IC50) [3] | reduction of viral replication [3] [%] | CC50 at 48 h (in vitro) [µM] | increase of IFN-β promoter stimulation (A(H1N1)pdm09 NS1 [4]) | fold increase for PKR (PKR mRNA) [fold] | fold increase in IFN-β mRNA accumulation (IFN-β mRNA) [fold] | restoration of the luciferase signal (A(H1N1)pdm09 NS1 [5]) | CC50 (A549 cells) [µM] | IFN-β promoter assay with the reference NS1 inhibitor (A(H1N1)pdm09 NS1 [4]; 5 μM)
Nc1ccccc1C(=O)NCCCc1ccccc1 [A22] | ~0.05 |  |  |  |  |  |  |  |  |  |  |  |  | 
CCc1ccc(NC(=O)COC(=O)c2ccc3ccccc3n2)cc1 [Compound 157] |  | without showing non-specific activities | 2.3 | 51.6 | 2.5 | > 7.8 | 50 | > 400 | at least 50% | 4.5 | 2.7 | significant restoration of the luciferase signal |  | 
O=C(CSc1nnnn1-c1ccccc1)NCc1ccccc1 [Compound 164] |  | without showing non-specific activities | 1.7 | 46.4 | 2.3 | 3.6 | 60 | > 150 | at least 50% | 1.7 | 3.2 | significant restoration of the luciferase signal | 169 | 
O=C(NCCCc1ccccc1)c1ccccc1O [JJ3297, reference compound] | 0.8 |  |  |  |  |  |  |  |  |  |  |  |  | specificity of the IFN-β promoter assay was also confirmed
O=C(N/N=C/c1ccc2c(c1)CCC2)c1ccccc1O [NSC125044] | 8 |  |  |  |  |  |  |  |  |  |  |  |  | 
